Results: ChEMBL document CHEMBL1201862, “PubChem BioAssay data set” (2004)
The source made the active and inactive calls.

Tests used:
Type in all cases: functional
[1] = target: T1, Sentrin-specific protease 6 (Homo sapiens, UniProt Q9GZR1);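 further: Luminescence-based dose-response confirmatory assay of SENP6 inhibition, following up an ultra-high-throughput screen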
T1 sequence (Q9GZR1 whole entry): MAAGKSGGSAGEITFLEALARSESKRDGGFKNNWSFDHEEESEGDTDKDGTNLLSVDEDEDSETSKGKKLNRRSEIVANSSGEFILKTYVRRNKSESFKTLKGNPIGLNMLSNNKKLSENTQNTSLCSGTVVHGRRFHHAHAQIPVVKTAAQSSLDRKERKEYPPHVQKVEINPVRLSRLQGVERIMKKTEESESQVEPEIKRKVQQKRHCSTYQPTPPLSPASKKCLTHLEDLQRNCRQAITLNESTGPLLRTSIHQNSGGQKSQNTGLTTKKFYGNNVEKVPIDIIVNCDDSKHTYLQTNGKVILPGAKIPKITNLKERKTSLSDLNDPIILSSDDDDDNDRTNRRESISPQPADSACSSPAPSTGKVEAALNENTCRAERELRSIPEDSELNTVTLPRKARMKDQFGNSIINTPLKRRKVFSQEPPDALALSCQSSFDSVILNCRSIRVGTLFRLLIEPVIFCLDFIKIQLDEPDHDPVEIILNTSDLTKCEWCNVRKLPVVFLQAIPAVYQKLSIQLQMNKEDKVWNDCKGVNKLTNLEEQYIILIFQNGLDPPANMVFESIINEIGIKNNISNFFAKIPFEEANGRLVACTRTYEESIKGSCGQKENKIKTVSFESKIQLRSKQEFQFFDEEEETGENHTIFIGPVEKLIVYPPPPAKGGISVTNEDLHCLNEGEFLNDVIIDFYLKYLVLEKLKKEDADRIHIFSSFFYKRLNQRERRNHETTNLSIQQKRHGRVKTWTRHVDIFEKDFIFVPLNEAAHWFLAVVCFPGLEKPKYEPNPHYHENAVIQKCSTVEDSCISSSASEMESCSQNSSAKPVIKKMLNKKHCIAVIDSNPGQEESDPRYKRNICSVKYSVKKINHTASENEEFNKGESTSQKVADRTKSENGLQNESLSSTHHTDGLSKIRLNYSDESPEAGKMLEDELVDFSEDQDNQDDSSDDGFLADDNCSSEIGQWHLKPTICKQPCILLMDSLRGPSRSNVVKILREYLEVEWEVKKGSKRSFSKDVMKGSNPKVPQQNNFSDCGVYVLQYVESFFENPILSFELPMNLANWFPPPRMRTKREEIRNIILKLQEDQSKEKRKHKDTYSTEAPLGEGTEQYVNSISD

[2] = target: T2, Microphthalmia-associated transcription factor (Homo sapiens, UniProt O75030); experiment: TRPM1 promoter luciferase signal decrease, dose response, MITF inhibitor project, cell-based, SK-MEL-5, cherry-picked, set 3 (AID 493073)
T2 sequence (O75030 whole entry): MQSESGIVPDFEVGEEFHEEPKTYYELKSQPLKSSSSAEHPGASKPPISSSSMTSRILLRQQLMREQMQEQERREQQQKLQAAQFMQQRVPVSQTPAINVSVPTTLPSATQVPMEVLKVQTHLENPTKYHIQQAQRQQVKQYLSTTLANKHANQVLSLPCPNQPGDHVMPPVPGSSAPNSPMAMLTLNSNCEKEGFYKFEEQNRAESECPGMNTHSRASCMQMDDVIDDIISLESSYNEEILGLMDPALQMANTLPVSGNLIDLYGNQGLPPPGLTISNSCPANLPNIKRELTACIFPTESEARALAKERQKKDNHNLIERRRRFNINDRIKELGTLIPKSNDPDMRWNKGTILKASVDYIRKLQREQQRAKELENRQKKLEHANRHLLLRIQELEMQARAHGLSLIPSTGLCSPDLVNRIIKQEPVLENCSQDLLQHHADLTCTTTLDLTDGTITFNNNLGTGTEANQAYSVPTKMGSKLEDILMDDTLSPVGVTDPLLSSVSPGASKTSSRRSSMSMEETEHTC

[3] = target: T3, Sentrin-specific protease 8 (Homo sapiens, UniProt Q96LD8); experiment: SENP8 protease inhibitors, SAR follow-up, biochemical, luminescence (AID 504501)
T3 sequence (Q96LD8 whole entry): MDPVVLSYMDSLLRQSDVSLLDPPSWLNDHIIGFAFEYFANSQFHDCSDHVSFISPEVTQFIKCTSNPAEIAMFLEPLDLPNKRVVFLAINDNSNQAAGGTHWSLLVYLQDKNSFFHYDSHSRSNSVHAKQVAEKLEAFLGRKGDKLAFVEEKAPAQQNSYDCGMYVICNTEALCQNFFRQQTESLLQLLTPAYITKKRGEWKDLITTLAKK

[4] = target: Protein kinase C zeta type (Homo sapiens, UniProt Q05513);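 further: measured as one member of a broad kinase profiling panel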
[5] = target: Serine/threonine-protein kinase PLK3 (Homo sapiens, UniProt Q9H4B4)
[6] = target: Death-associated protein kinase 3 (Homo sapiens, UniProt O43293);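 further: measured as one member of a kinome-wide profiling panel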
[7] = target: Activin receptor type-1 (Homo sapiens, UniProt Q04771); experiment: Navigating the Kinome. Panel member name: ACVR1
[8] = target: Cyclin-dependent kinase 2 (Homo sapiens, UniProt P24941);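 further: CDK2 measured as one member of a broad kinome profiling panel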
[9] = target: Tyrosine-protein kinase ITK/TSK (Homo sapiens, UniProt Q08881);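 further: affinity for ITK measured as one member of a broad kinase panel profiling binding across the kinome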
[10] = target: Mitogen-activated protein kinase 13 (Homo sapiens, UniProt O15264)
[11] = target: Ephrin type-A receptor 2 (Homo sapiens, UniProt P29317);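 further: EPHA2 tested as one member of a kinome-wide kinase panel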
[12] = target: Serine/threonine-protein kinase Nek2 (Homo sapiens, UniProt P51955)
[13] = target: STE20-like serine/threonine-protein kinase (Homo sapiens, UniProt Q9H2G2)
[14] = target: cAMP-dependent protein kinase catalytic subunit alpha (Homo sapiens, UniProt P17612)
[15] = target: Serine/threonine-protein kinase MRCK alpha (Homo sapiens, UniProt Q5VT25)
[16] = target: Tyrosine-protein kinase receptor UFO (Homo sapiens, UniProt P30530)

Chain of Ephrin type-A receptor 2 (P29317 whole entry): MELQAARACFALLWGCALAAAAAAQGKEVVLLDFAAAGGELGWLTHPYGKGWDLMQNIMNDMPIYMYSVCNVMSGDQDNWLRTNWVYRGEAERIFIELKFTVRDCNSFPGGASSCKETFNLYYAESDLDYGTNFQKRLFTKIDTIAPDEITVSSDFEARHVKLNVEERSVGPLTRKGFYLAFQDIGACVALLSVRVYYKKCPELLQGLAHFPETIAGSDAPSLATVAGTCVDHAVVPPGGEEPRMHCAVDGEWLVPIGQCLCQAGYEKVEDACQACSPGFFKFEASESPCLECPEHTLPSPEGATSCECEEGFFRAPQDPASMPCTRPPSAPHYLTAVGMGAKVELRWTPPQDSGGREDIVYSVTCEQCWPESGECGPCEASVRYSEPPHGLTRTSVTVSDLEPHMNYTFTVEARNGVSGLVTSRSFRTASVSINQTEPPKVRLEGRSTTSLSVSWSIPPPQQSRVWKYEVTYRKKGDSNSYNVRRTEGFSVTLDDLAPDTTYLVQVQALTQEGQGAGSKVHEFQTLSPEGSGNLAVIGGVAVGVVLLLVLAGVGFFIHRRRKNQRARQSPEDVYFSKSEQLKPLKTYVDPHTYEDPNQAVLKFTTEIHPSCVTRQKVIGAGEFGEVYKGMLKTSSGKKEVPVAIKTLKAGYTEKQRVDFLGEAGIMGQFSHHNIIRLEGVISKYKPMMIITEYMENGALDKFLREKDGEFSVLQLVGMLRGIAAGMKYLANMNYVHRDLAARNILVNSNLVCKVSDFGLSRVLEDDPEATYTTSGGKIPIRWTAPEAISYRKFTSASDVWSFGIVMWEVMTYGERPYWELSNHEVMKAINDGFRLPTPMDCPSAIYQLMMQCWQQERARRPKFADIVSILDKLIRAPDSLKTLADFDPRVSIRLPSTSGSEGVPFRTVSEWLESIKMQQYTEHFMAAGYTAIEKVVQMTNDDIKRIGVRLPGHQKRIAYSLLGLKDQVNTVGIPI
Chain of STE20-like serine/threonine-protein kinase (Q9H2G2 whole entry): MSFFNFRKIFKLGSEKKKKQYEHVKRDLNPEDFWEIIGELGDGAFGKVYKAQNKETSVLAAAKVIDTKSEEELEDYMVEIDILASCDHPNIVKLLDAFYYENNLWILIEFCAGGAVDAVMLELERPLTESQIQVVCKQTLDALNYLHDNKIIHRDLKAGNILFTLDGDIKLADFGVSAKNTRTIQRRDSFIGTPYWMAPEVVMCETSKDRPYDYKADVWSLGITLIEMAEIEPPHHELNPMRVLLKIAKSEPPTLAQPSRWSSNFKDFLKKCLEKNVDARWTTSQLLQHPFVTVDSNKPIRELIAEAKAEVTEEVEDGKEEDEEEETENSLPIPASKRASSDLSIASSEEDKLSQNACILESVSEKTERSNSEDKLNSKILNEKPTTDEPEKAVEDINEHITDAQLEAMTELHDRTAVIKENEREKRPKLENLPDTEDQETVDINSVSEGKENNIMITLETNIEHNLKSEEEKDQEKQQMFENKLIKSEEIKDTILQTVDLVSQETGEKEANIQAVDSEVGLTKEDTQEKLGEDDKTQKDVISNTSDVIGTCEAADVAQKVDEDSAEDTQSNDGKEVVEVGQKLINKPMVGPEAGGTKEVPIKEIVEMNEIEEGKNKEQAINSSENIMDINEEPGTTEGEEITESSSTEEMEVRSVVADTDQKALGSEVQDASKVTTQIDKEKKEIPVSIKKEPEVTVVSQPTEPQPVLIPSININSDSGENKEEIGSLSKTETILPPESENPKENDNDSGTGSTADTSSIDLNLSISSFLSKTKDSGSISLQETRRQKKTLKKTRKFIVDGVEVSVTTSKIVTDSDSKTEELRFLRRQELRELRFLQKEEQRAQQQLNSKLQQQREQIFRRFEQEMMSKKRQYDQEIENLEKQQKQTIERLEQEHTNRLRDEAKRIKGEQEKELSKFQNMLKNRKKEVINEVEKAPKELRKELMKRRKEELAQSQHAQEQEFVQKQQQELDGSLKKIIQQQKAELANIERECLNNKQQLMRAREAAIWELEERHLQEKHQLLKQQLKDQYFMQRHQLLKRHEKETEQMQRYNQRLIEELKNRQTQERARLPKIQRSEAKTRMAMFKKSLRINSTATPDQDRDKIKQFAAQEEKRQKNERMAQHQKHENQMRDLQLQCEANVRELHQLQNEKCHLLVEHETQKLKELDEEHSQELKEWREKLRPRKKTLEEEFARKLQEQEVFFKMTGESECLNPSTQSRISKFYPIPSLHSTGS
Chain of Serine/threonine-protein kinase PLK3 (Q9H4B4 whole entry): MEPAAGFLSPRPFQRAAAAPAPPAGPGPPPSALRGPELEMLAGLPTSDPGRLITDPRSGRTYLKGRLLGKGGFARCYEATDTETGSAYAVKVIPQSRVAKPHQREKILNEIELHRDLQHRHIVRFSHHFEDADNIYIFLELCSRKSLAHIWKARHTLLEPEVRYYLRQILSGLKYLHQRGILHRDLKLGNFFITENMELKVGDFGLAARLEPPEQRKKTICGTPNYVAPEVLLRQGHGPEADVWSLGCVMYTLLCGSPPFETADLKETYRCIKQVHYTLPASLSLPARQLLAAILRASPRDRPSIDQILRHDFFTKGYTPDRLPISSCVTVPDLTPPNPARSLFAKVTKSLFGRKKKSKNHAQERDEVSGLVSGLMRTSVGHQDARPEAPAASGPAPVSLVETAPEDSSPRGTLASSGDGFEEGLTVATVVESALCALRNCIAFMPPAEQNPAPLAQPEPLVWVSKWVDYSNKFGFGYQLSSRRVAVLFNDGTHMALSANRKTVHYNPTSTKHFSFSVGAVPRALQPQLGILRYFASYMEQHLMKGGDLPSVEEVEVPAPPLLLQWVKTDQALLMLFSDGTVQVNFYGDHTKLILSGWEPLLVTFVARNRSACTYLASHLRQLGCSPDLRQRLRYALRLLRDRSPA
Chain of Protein kinase C zeta type (Q05513 whole entry): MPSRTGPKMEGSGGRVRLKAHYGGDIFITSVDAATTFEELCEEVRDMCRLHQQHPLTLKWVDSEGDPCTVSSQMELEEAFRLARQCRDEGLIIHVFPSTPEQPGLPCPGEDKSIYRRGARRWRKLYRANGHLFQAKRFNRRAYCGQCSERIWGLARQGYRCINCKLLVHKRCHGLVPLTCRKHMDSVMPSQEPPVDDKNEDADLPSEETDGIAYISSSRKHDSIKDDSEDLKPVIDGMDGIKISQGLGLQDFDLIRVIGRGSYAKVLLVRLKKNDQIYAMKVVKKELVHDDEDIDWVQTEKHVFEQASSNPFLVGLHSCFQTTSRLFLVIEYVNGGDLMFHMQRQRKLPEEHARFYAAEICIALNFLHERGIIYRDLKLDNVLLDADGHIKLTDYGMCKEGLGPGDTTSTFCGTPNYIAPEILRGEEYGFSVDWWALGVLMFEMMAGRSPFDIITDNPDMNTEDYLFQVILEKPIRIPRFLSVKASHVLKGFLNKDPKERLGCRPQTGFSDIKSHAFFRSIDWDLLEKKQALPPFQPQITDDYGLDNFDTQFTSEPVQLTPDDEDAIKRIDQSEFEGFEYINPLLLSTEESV
Chain of Serine/threonine-protein kinase Nek2 (P51955 whole entry): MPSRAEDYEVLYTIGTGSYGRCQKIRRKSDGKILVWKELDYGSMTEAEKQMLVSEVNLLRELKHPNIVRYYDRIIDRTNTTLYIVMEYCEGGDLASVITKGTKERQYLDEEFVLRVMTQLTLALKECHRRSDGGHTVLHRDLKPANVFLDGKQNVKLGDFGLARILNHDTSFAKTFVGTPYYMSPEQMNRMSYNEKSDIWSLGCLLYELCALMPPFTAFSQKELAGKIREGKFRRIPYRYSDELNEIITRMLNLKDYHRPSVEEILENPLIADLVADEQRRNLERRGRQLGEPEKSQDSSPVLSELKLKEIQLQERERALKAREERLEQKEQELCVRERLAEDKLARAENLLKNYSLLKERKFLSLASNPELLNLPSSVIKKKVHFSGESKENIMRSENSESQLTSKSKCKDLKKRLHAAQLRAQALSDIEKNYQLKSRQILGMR
Chain of Tyrosine-protein kinase ITK/TSK (Q08881 whole entry): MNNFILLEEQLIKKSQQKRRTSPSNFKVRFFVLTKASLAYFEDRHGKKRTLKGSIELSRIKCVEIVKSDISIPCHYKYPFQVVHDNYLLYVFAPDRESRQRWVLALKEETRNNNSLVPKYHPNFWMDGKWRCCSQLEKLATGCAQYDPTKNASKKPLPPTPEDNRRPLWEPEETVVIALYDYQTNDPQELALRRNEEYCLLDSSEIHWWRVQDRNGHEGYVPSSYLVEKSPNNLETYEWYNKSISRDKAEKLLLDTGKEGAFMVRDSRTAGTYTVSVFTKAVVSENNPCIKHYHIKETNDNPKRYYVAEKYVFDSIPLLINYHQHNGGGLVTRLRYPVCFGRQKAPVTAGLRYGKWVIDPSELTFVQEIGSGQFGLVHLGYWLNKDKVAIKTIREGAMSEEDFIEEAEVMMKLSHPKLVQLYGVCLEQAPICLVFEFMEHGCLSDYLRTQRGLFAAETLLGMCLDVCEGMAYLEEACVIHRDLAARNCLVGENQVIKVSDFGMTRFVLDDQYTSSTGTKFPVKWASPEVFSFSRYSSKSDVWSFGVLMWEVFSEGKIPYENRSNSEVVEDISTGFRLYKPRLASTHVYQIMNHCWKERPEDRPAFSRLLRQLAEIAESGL
Chain of Death-associated protein kinase 3 (O43293 whole entry): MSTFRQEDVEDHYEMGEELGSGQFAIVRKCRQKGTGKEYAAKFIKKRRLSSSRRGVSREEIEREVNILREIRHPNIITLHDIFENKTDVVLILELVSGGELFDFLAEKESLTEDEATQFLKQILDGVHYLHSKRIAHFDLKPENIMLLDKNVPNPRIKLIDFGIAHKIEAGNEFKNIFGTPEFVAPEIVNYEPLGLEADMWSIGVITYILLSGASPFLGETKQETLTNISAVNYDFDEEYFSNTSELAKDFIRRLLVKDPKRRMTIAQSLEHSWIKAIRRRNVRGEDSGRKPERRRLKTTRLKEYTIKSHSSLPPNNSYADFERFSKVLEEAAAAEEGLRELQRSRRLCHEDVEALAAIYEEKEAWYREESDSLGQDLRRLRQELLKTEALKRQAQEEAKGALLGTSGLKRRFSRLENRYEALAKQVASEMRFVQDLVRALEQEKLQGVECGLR

Cc1c(NC(=O)C(C)OC(=O)c2ccc([N+](=O)[O-])s2)c(=O)n(-c2ccccc2)n1C (stereo unspecified)
IC50 [1]: 7.32 µM (active) | AC50 [2]: 34.1 µM (active)

COc1cc(Br)c(C(=O)c2nccc3cc(OC)c(OC)cc23)cc1OC
IC50 [3]: 35.6 µM (active)

CC(N)C1CCC(C(=O)Nc2ccnc3[nH]ccc23)CC1 (stereo unspecified)
Ki [4]: > 7.94 µM (inactive) | Ki [5]: > 7.94 µM (inactive) | Ki [6]: > 1.26 µM (inactive) | Ki [7]: 1 µM (active) | Ki [8]: 1 µM (active) | Ki [9]: > 5.01 µM (inactive) | Ki [10]: > 7.94 µM (inactive) | Ki [11]: > 3.16 µM (inactive) | Ki [12]: > 10 µM (inactive) | Ki [13]: 5.01 µM (active) | Ki [14]: 0.0794 µM (active) | Ki [15]: 3.98 µM (active) | Ki [16]: > 2 µM (inactive)
